ChEMBL document CHEMBL1143939, “Binding effect and design of a competitive inhibitory peptide for HMG-CoA reductase through modeling of an active peptide backbone” (Bioorg Med Chem, 2008)
Active and inactive are the calls of the source. The rule behind the calls is not given here. Non-standard residues stand in square brackets, D forms with d. Residues, ends and D or L forms follow the SMILES beside them. Phe(4-F) = N[C@@H](Cc1ccc(F)cc1)C(=O)O

What follows are compounds tested against T1, 3-hydroxy-3-methylglutaryl-coenzyme A reductase (Mesocricetus auratus) (UniProt P09610) (assay: (§1) Inhibition of Syrian hamster HMGR).
T1 sequence (whole entry): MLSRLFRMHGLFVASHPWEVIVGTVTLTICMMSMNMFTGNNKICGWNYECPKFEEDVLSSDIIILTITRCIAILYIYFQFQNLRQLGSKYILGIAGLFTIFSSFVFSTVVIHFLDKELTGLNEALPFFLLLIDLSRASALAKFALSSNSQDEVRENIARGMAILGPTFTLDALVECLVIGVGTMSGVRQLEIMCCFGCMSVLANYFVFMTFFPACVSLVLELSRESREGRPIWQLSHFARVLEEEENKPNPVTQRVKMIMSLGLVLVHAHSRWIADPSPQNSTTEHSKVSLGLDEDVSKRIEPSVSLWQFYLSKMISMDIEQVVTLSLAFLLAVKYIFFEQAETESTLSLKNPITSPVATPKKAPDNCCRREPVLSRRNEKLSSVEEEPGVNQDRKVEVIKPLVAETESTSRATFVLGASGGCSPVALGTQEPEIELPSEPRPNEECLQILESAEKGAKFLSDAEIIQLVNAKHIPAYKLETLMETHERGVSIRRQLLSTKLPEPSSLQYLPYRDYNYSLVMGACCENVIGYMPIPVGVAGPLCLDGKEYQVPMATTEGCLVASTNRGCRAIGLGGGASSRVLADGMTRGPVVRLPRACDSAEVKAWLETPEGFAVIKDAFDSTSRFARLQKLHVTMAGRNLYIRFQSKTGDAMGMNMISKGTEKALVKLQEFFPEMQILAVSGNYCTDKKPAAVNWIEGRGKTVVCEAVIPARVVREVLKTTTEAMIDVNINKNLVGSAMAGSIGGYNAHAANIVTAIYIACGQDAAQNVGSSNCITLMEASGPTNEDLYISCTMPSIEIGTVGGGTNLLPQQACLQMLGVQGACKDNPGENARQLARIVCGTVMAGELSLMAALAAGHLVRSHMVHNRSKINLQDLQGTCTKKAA

| Compound | Activity |
| --- | --- |
| CC(C)[C@H](NC(=O)CN)C(=O)N[C@@H](C)C(=O)N[C@@H](CCC(=O)O)C(=O)O (H-GVAE-OH) | inactive |
| H-GGPTGG-OH | inactive |

The compounds below were run against T2, 3-hydroxy-3-methylglutaryl-coenzyme A reductase (Mesocricetus auratus, UniProt P09610) (assay: as §1).
T2 sequence (P09610 whole entry): T1 sequence (whole entry)

| Compound | IC50 [µM] |
| --- | --- |
| CC(C)[C@H](NC(=O)[C@@H](N)Cc1ccccc1)C(=O)N[C@@H](C)C(=O)N[C@@H](CCC(=O)O)C(=O)O (H-FVAE-OH) | 43.8 |
| CC[C@H](C)[C@H](N)C(=O)N[C@@H](C)C(=O)N[C@H](C(=O)N[C@@H](CCC(=O)O)C(=O)O)C(C)C (H-IAVE-OH) | 75.2 |
| CC[C@H](C)[C@H](N)C(=O)N[C@@H](C)C(=O)N[C@H](C(=O)N1CCC[C@H]1C(=O)O)C(C)C (H-IAVP-OH) | 97.1 |
| CC[C@H](C)[C@H](N)C(=O)N[C@H](C(=O)N[C@@H](C)C(=O)N[C@@H](CCC(=O)O)C(=O)O)C(C)C (H-IVAE-OH) | 44.1 |
| CC(C)C[C@H](N)C(=O)N1CCC[C@H]1C(=O)N[C@@H](Cc1ccc(O)cc1)C(=O)N1CCC[C@H]1C(=O)O (H-LPYP-OH) | 485 |
| CC(C)[C@H](NC(=O)[C@H](C)NC(=O)[C@@H](N)Cc1ccc(O)cc1)C(=O)N[C@@H](CCC(=O)O)C(=O)O (H-YAVE-OH) | 52.6 |
| CC(C)[C@H](NC(=O)[C@@H](N)Cc1ccc(O)cc1)C(=O)N[C@@H](C)C(=O)N[C@@H](CCC(=O)O)C(=O)O (H-YVAE-OH) | 41.8 |
| CC(C)[C@H](NC(=O)[C@@H](N)Cc1ccc(F)cc1)C(=O)N[C@@H](C)C(=O)N[C@@H](CCC(=O)O)C(=O)O (H-[Phe(4-F)]VAE-OH) | 3.8 |
| H-GFPDGG-OH | 1.5 |
| H-GFPEGG-OH | 1.7 |
| H-GFPTGG-OH | 16.9 |
| H-GLPDGG-OH | 22.3 |
| H-GLPEGG-OH | 27.2 |
| H-GLPTGG-OH | 19.4 |
| H-IAVPGEVA-OH | 152 |
